“Also recorded” adds a separate entry of the source.
Columns and labels:
[1] = system: bovine choroidal microvascular endothelial cells (BCEC); assay: BCEC proliferation assay; assay type: cell-based; conditions: for stimulation of BCEC proliferation by structurally related molecules: with or without VEGF, 0.04 μM-5 mM; for stimulatory effect of hexosamines on BCEC proliferation: tested alongside ManN, FIG. 1D; for block of ManN effects on BCEC proliferation by monosaccharides: monosaccharide at maximum 1:10 molar ratio, added after 2 hours ManN
Method: Proliferation assays with BCECs and BRECs were performed. Log-phase growing BCECs or BRECs (passage <10) were trypsinized, re-suspended and seeded in 96-well plates (no coating) in low-glucose DMEM supplemented with 10% bovine calf serum, 2 mM glutamine, and antibiotics (growth medium), at a density of 1200-1500 cells per well in 200 μl volume. All reagents were added at the indicated final concentrations. […] Fluorescence was measured at 530 nm excitation wavelength and 590 nm emission wavelength. The experiments were repeated at least three times. […] On each 96-well plate, untreated and VEGF-treated (10/ng/ml) wells were included to monitor plate-to-plate variations. 20% methanol or 0.05% DMSO served as negative controls. 0.05% DMSO served as negative controls when Cas was tested in these cells. Human […] and human adult […] were split into Gelatin-coated 96 wells (2000 cells per well) in low glucose DMEM containing 10% FBS. 1200 cells/well was set up for proliferation assay in low glucose media containing FBS. […] HUVEC (p7-10) were grown on gelatin-coated plate until it reached 70-80% confluency. On the day of the assay, cells were dissociated with 0.05% trypsin, which was neutralized with 0.5% FBS-containing EBM. Cells were briefly spun and then re-suspended in 0.5% FBS-media. Cells were counted and plated in 96-well, 1000 cells/well. Triplicate wells were used for each treatment. Data were collected at day 3, and then cells were fixed in 4% paraformaldehyde for 15 min before adding crystal violet. Cell-covered areas were quantified after taking pictures by Image J software.

[2] = system: ERK, AKT, mTOR, CREB, ACC and eNOS; assay: Western blot of signal transduction pathways in BCECs; assay type: cell-based, bovine
Method: (§1) Cells were allowed to reach ˜80% confluency in 12-well plates. […] At various time points, plates were taken out of the incubator and kept on ice. Cell monolayers were first washed once with ice-cold PBS before lysis with 250 μl of Pierce RIPA buffer (ThermoFisher Scientific, Rockford, IL) or use 50 mM Tris-HCl (pH 7.6), 150 mM NaCl, 10% Glycerol, 1% NP-40 containing protease/Phosphatase inhibitor cocktail (100×) (Cell signaling, #5872). Lysates were collected and mixed with 4×Bolt LDS Sample Buffer (Novex, Carlsbad, CA) in the presence of Halt protease inhibitors and phosphatase inhibitor cocktail (ThermoFisher scientific, #NP0007). The samples were subjected to SDS-PAGE (Bolt 4-12% Bis-Tris Plus, Invitrogen) using Bolt MES SDS running buffer or NuPAGE 3-8% Tris-Acetate gel using Tris-Acetate SDS running buffer (Novex). HUVECs (passage 6-8) were plated in EBM-2 basal medium (Lonza) with 0.2% FBS. […] Equal amounts of protein lysates were analyzed by SDS-PAGE and blotted with the indicated antibodies. Proteins were transferred using Tris-Glycine buffer with 20% Methanol (Proteonomics grade) (Apex BioResearch Products). Membranes were first incubated with 5% milk in TBST, pH 7.6 (TEKnova, Hollister, CA), followed by blotting with primary and secondary antibodies. ECL anti-rabbit IgG, horseradish peroxidase linked whole antibody from donkey or sheep anti-mouse were obtained from GE Healthcare (UK limited). SuperSignal West Dura Extended Duration substrate was from ThermoFisher Scientific. In some cases, the same PVDF membranes were stripped by 8-min incubation in the Restore Plus Western Blot Stripping Buffer (ThermoFisher Scientific) to show total specific protein expression, followed by second stripping for β-actin expression.

VEGFR2 = assay: Western blot of VEGFR2 molecular mass in BCECs and BRECs; assay type: cell-based, bovine; conditions: 24 hours; SDS-PAGE
Method: Glycerol-free PNGase F was obtained from New England Biolabs (Ipswich, MA). Briefly, BCECs were lysed with NP-40 containing proteinase inhibitors (Thermo Scientific, Waltham, MA). Lysates were cleared at 4° C. at 5000 g for 25 mins. Total protein content was measured using Pierce BCA protein assay kit (ThermoScientific). […] of protein was mixed with 10× denaturing buffer and H2O to a total volume of […]. Glycoproteins were denatured at 100° C. for 10 mins, followed by adding Glycobuffer and PNGase F. The reaction was carried out at 37° C. for 2 hr.
as §1

Bip, CHOP and ATF-6 = assay: Western blot of UPR responsive proteins in BCECs; assay type: cell-based, bovine; conditions: for prevention of CHOP induction by ManN: 2 mM 4-PBA or 500 uM TUDCA, ManN at 400 uM and 5 mM; for restoration of ATF-6 expression: ManN at 400 uM
Method: as §1

ERK and AKT = assay: Western blot of ERK and AKT activation in HUVEC and hDMVECs; assay type: cell-based, human; conditions: hDMVECs
Method: as §1, with “80%” for “˜80%”, “ECL anti-rabbit IgG, horseradish peroxidase linked whole antibody from donkey or sheep anti-mouse were obtained from GE Healthcare (UK limited). SuperSignal West Dura Extended Duration substrate was from ThermoFisher Scientific. In some cases, the same PVDF membranes were stripped by 8-min incubation in the Restore Plus Western Blot Stripping Buffer (ThermoFisher Scientific) to show total specific protein expression, followed by second stripping for β-actin expression.” left out

JNK/c-Jun = assay: Western blot of JNK pathway activation in BCECs; assay type: cell-based, bovine; conditions: media without growth factors
Method: as §1, with “80%” for “˜80%”

[3] = system: BCEC confluent monolayers; assay: BCEC scratch assay; assay type: cell-based, bovine; conditions: over 48 hours relative to control
Method: BCECs (passage 6-10) and HUVEC (passage 6-8) were used in this assay. Cells were grown until about 80% confluency in 6-well plates, washed twice with PBS and then starved in serum-free DMEM (low Glucose, Hyclone) for 5 hrs before making a “scratch” using 1 ml tip. Cell monolayers were briefly washed once with serum-free media, followed by various treatments in media containing 1% FBS. 48 hrs later, the assay was stopped by adding 2 ml 4% paraformaldehyde. 20 min later, fixed cells were stained with 1 ml Crystal Violet (Sigma). Plates were washed gently under the running tap water and air-dried before taking pictures. Images were acquired by ZEISS Discovery […] microscopy equipped with […] camera. Quantification of wound closure was done using AxioVision LE Rel.4.4 software. Six images were taken for each sample and six measurements (in pixel) were made on each image using AxioVision LE Rel.4.4 software.

retinal vasculature = assay: Retinal neovascularization after intravitreal injection; assay type: in vivo, mouse; conditions: intravitreal 500 ng ManN or Kif, 200 ng bFGF; seven days
Method: Assessment of retinal angiogenesis following intravitreal administration was done. Briefly, 6-8 weeks old C57BL/6 male mice were randomly allocated to different groups and anesthetized with ketamine/Xylazine cocktail. The indicated amounts of ManN, Kif or bFGF (R&D systems, AF-233-NA) in 1 μl of PBS and PBS vehicle control were injected intravitreally with a 33-gauge Hamilton syringe. Seven days after injection, animals were euthanized. Eyes were then enucleated and fixed in 4% paraformaldehyde (PFA) for 30 mins. Retinas were separated and stained with anti-CD31 immunofluorescence (IF) to evidence the vasculature. Evaluations were performed by an investigator blinded to the treatment. For CD31 IF, rat anti-mouse antibody (BD Biosciences, CAT #550274) was diluted 1:100 and incubated overnight at 4° C. After 4-hour incubation with the Alexa Fluor-488-conjugated anti-rat antibody (Life Technologies, A11006), whole mounts were imaged via the 488 nm channel using A1R Confocal STORM super-resolution system (Nikon). Quantification of vascular density in choroids and retina was carried out by Image J. Each experiment was repeated three times with similar results, and each treatment group consists of 5 individual samples.

[4] = mouse, in vivo, po

## CC(=O)N[C@H]1[C@H]([C@H](O)[C@H](O)CO)OC(O)(C(=O)O)C[C@@H]1O (stereo partly drawn) [N-Acetyl-neuraminic acid, N-Acetylneuraminic acid]
[1]
  stimulation of BCEC proliferation by structurally related molecules: None of these molecules stimulated BCEC proliferation

## CC(=O)N[C@@H]1C(O)O[C@H](CO)[C@@H](O)[C@@H]1O (stereo partly drawn) [ManNAc, N-acetyl-Mannosamine, reference compound]
[2]; 40 μM, compared with ManN
  activation of ERK, AKT, mTOR, CREB, ACC and eNOS by other agents: induced a similar activation

## Cl.NCC(=O)[C@@H](O)[C@H](O)[C@H](O)CO [D-isoglucosamine, 1-Amino-1-deoxy-D-Fructose hydrochloride]
[1]
  stimulation of BCEC proliferation by structurally related molecules: None of these molecules stimulated BCEC proliferation

## C[C@@H](O[C@H]1[C@H](O)[C@@H](CO)OC(O)[C@@H]1N)C(=O)O (stereo partly drawn) [muramic acid, Muramic acid]
[1]
  stimulation of BCEC proliferation by structurally related molecules: None of these molecules stimulated BCEC proliferation

## O[C@H]1[C@H](O)[C@@H](O)CN2CC[C@H](O)[C@H]12 [Cas, Castanospermine, reference compound]
VEGFR2
  VEGFR2 molecular mass after glycosylation inhibitor treatment: reduction in VEGFR2 molecular mass
Bip, CHOP and ATF-6; media without growth factors for 24 hours
  Bip expression with glycosylation inhibitors: dose-dependent induction of Bip expression
[2]; 40 uM, BCECs
  activation of ERK: less obvious; also recorded: did not activate ERK
ERK and AKT
  activation of ERK: less obvious
JNK/c-Jun
  activation of JNK pathway (JNK and downstream c-Jun): able to activate the JNK pathway
[3]
  activity of glycosylation inhibitors in BCEC scratch assay: significant activity
[1]; absence or presence of 5 ng/ml VEGF
  BCEC proliferation with N-glycosylation inhibitors: stimulated in a dose-dependent fashion

## CNC[C@H](O)[C@@H](O)[C@H](O)[C@H](O)CO [meglumine, Meglumine]
[1]
  stimulation of BCEC proliferation by structurally related molecules: None of these molecules stimulated BCEC proliferation

## N[C@H]1C(O)O[C@H](CO)[C@@H](O)[C@@H]1O (stereo partly drawn) [glucosamine, D-(+)-Glucosamine]
[1]
  stimulatory effect of hexosamines on BCEC proliferation: none of these hexosamines had significant stimulatory effects

## O=C(O)CCCc1ccccc1 [4-PBA, 4-phenylbutyric acid]
Bip, CHOP and ATF-6
  prevention of CHOP induction by ManN: prevent the induction of CHOP expression
  restoration of ATF-6 expression: restore the expression of ATF-6
[1]; 1 mM 4-PBA
  additivity between ManN and VEGF after chemical chaperon pre-treatment: largely abolished
[1]; pre-treating with 1 mM 4-PBA for 4 hours, absence or presence of VEGF
  reversal of bell-shaped activity of ManN on BCEC proliferation by chemical chaperon: effectively reverse the bell-shaped activity of ManN

## bFGF: bFGF growth factor purchased from R&D systems, positive control
Retinal vasculature
  increase in density of retinal vessels compared to PBS group: about 35%

## N[C@H]1C(O)O[C@H](CO)[C@H](O)[C@@H]1O (stereo partly drawn) [galactosamine, D-(+)-Galactosamine]
[1]
  stimulatory effect of hexosamines on BCEC proliferation: none of these hexosamines had significant stimulatory effects

## O=C[C@H](O)[C@@H](O)[C@@H](O)[C@H](O)CO [galactose, reference compound]
[1]
  block of ManN effects on BCEC proliferation by monosaccharides: not

## C[C@H](CCC(=O)NCCS(=O)(=O)O)[C@H]1CC[C@H]2[C@@H]3[C@@H](O)C[C@@H]4C[C@H](O)CC[C@]4(C)[C@H]3CC[C@]12C [TUDCA, tauroursodeoxycholic acid]
Bip, CHOP and ATF-6
  prevention of CHOP induction by ManN: not
  restoration of ATF-6 expression: much weaker

## N[C@@H]1C(O)O[C@H](COP(=O)(O)O)[C@@H](O)[C@@H]1O (stereo partly drawn) [ManN-6p, ManN-6-phosphate]
[4]
  ManN-6p in ischemic leg muscle: 0.91+/−0.24 nmol/mg protein

## C[C@H](O)[C@@H](O)[C@@H](O)[C@H](O)C=O [fucose, reference compound]
[1]
  block of ManN effects on BCEC proliferation by monosaccharides: not
